The values that follow come from PubChem BioAssay (NCI).

Some test systems named below: HT29 colon; IGROV1 ovarian; NCI-H226 lung; OVCAR-4 ovarian; OVCAR-8 ovarian; SK-MEL-2 melanoma; UO-31 renal; U251 CNS.
Assay in all cases: DTP human tumour cell line panel, 48 h

SMILES strings stand for the structures.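 Cells were grown in 96-well plates and exposed to each compound for 48 hours at five concentrations; endpoints were interpolated linearly between bracketing concentrations, or set to the highest concentration if not reached. GI50 is the concentration that inhibits growth by half. At the TGI there is no net growth.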

As for `CC1(C)OC2OC(COC(=O)C(c3ccccc3)c3ccccc3)C3OC(C)(C)OC3C2O1` (configuration not stated), the TGI with HT29 colon, in the assay with IGROV1 ovarian, in the assay with NCI-H226 lung, with OVCAR-4 ovarian, in the assay on OVCAR-8 ovarian and in the assay with SK-MEL-2 melanoma was > 100 µM in each case. In the assay on UO-31 renal, the TGI is > 100 µM. In addition, the GI50 in the assay on IGROV1 ovarian and in the assay on NCI-H226 lung was > 100 µM throughout.

`CC(C)=CC(=O)CC(=O)C(=O)NCCNC(=O)C(=O)CC(=O)C=C(C)C`: the TGI in the assay on HT29 colon, in the assay on IGROV1 ovarian, with NCI-H226 lung, in the assay on OVCAR-4 ovarian, in the assay on OVCAR-8 ovarian and with SK-MEL-2 melanoma was > 50 µM in each case. The TGI in the assay with U251 CNS and in the assay on UO-31 renal was > 50 µM each time.

Consider `O=C(Nc1ccc(Cl)c(Cl)c1)C1C(=O)N(c2ccc(Cl)c(Cl)c2)C(=O)/C1=N\O` (configuration not stated), for which the TGI in the assay on HT29 colon, in the assay with IGROV1 ovarian, in the assay on NCI-H226 lung, in the assay with OVCAR-4 ovarian, with OVCAR-8 ovarian and in the assay on SK-MEL-2 melanoma was > 100 µM in each case. Further, the total growth inhibition concentration (TGI) with U251 CNS and with UO-31 renal was > 100 µM each time.

Consider `C1CCN2CC3CONC3C2C1` (configuration not stated), for which the TGI in the assay on HT29 colon, in the assay on IGROV1 ovarian, in the assay on NCI-H226 lung, in the assay on OVCAR-4 ovarian, in the assay with OVCAR-8 ovarian and in the assay on SK-MEL-2 melanoma was > 100 µM in each case. The TGI in the assay with U251 CNS and in the assay with UO-31 renal was > 100 µM each time.

In the case of `Nc1c(-c2nc3ccccc3s2)[n+]([O-])c2ccccc2[n+]1[O-]`, the TGI in the assay on HT29 colon was > 100 µM; in the assay on IGROV1 ovarian, > 100 µM; in the assay with NCI-H226 lung, > 100 µM; in the assay on OVCAR-4 ovarian, > 100 µM; in the assay with OVCAR-8 ovarian it was > 100 µM; in the assay with SK-MEL-2 melanoma, 74.9 µM. Moreover, the TGI in the assay with U251 CNS is > 100 µM; in the assay with UO-31 renal, 77.7 µM.

For `c1ccc2c(c1)[O][Sn][O]2`, the GI50 in the assay on HT29 colon is 95.4 µg/mL; with IGROV1 ovarian it was 24.3 µg/mL; with NCI-H226 lung, 69.5 µg/mL; in the assay with OVCAR-4 ovarian, 102 µg/mL; in the assay on OVCAR-8 ovarian, 45.3 µg/mL; in the assay with SK-MEL-2 melanoma, 92.6 µg/mL. The GI50 in the assay with U251 CNS was > 150 µg/mL; in the assay on UO-31 renal it was 12.6 µg/mL. Further, the total growth inhibition concentration (TGI) in the assay on HT29 colon, in the assay on IGROV1 ovarian, in the assay on NCI-H226 lung, in the assay with OVCAR-4 ovarian, in the assay with OVCAR-8 ovarian and with SK-MEL-2 melanoma was > 150 µg/mL throughout. Further, the TGI in the assay on U251 CNS and in the assay with UO-31 renal was > 150 µg/mL throughout.

Consider `CCOC(=O)COc1cccc2occc(=O)c12`, for which the TGI in the assay on HT29 colon, in the assay on IGROV1 ovarian, with OVCAR-4 ovarian, in the assay on OVCAR-8 ovarian, in the assay with SK-MEL-2 melanoma and with U251 CNS was > 100 µM throughout. The TGI in the assay with UO-31 renal is > 100 µM.

With `COc1ccc2c3c(c(C(=O)O)oc13)C(CCC(=O)O)CC2` (configuration not stated), the TGI in the assay on HT29 colon, in the assay with IGROV1 ovarian, in the assay with OVCAR-4 ovarian, in the assay with OVCAR-8 ovarian and in the assay on U251 CNS was > 100 µM throughout.

As to `NNC(=O)N/N=C1\CNC(=O)C(=O)C1c1nc2ccccc2s1` (configuration not stated), the TGI in the assay on HT29 colon, in the assay with IGROV1 ovarian, in the assay with NCI-H226 lung, with OVCAR-4 ovarian, in the assay with OVCAR-8 ovarian and in the assay with SK-MEL-2 melanoma was > 100 µM each time. Besides, the TGI in the assay on U251 CNS and in the assay with UO-31 renal was > 100 µM in each case.

For the compound `Cc1csc(CCC(N)C(=O)O)n1` (configuration not stated), the TGI with HT29 colon, with IGROV1 ovarian, in the assay on NCI-H226 lung, in the assay with OVCAR-8 ovarian, in the assay with U251 CNS and in the assay with UO-31 renal was > 100 µM each time.

For the compound `O=c1[nH]c(=O)n(C2CC(O)C(O)C(CO)O2)cc1F` (configuration not stated), the TGI in the assay on HT29 colon, in the assay on IGROV1 ovarian, with NCI-H226 lung, in the assay on OVCAR-4 ovarian, with OVCAR-8 ovarian and in the assay with SK-MEL-2 melanoma was > 100 µM throughout. Moreover, the concentration for total growth inhibition (TGI) in the assay on U251 CNS and with UO-31 renal was > 100 µM throughout.

`NC(=O)C(=O)Cc1nc2ccccc2s1`: the TGI in the assay with HT29 colon, in the assay on NCI-H226 lung, with OVCAR-4 ovarian, in the assay with OVCAR-8 ovarian, with SK-MEL-2 melanoma and in the assay on U251 CNS was > 100 µM throughout. The TGI in the assay with UO-31 renal is > 100 µM.

Take `CC(=O)c1c(O)c2c([nH]c1=O)CCCC2`: the TGI in the assay with HT29 colon is > 100 µM; in the assay on IGROV1 ovarian, > 100 µM; in the assay on OVCAR-4 ovarian it was > 100 µM; with OVCAR-8 ovarian it was > 100 µM; in the assay with U251 CNS it was 60.9 µM; with UO-31 renal, 31.2 µM.

Take `O=C(CCC(=O)C1Cc2ccccc2C1=O)Nc1cccc(C(F)(F)F)c1` (configuration not stated): the TGI with HT29 colon, with IGROV1 ovarian, with NCI-H226 lung, in the assay with OVCAR-4 ovarian, in the assay on OVCAR-8 ovarian and in the assay on SK-MEL-2 melanoma was > 100 µM throughout. For the same compound, the total growth inhibition concentration (TGI) in the assay on U251 CNS and with UO-31 renal was > 100 µM throughout.

As usually defined, the TGI is the concentration at which net growth stops. High values mean less potent growth arrest, low ones more potent growth arrest. Usually GI50 stands for the concentration that inhibits growth by half.
